From patent US20130150399A1, “INHIBITORS OF THE UNFOLDED PROTEIN RESPONSE AND METHODS FOR THEIR USE” (The Board of Trustees of the Leland Stanford Junior …, priority 2006, published 2013)

Columns and labels:
RNAse A = target: T1, RNAse A (Bos taurus, UniProt P61823); assay: RNAse A activity assay; assay type: biochemical, bovine; details: >100-fold molar excess of irestatin 9389
T1 construct: purchased Sigma

[1] = Blood chemistry, complete blood count and histopathology; assay type: in vivo, mice
Description: Complete blood counts (CBC's) and clinical chemistry panels were performed on blood obtained by cardiac puncture after euthanasia with CO2 Gross necropsies were performed, all major viscera were harvested, fixed in 10% buffered neutral formalin, routinely processed for paraffin embedding, and stained with hematoxylin and eosin (H&E). Sections were analyzed by a board-certified veterinary pathologist (DMB). […]

RPMI 8226 myeloma cells = assay: Cell proliferation assay, RPMI 8226; assay type: cell-based, human; details: dose-dependent
His6-IRE1α-cyto = target: T2, His6-IRE1α-cyto (Homo sapiens, UniProt O75460); assay: IRE1α endonuclease (in vitro ribonuclease) assay; assay type: biochemical; details: 2.5 μM
T2 construct: purified the full cytosolic portion of IRE1α (His6-IRE1α-cyto) containing both kinase and endonuclease domains; His6; made in house
T2 sequence (O75460 465-977 limits assumed): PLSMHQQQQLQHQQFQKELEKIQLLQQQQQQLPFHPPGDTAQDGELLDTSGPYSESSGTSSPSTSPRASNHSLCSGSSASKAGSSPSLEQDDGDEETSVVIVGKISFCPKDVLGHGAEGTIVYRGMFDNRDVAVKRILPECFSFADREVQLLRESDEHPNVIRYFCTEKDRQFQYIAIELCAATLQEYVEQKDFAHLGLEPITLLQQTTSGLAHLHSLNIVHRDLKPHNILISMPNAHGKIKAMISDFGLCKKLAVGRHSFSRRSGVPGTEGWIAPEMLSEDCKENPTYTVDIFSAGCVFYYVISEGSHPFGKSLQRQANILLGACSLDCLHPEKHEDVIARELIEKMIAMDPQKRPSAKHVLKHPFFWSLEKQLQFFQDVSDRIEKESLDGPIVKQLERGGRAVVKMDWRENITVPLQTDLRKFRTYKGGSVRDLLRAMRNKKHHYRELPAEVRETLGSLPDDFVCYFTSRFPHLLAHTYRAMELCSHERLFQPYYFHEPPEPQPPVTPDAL
Description: The in vitro ribonuclease assays were carried out using purified IRE1α-cyto essentially as described. Gonzalez and Walter, Methods Mol Biol 160: 25-36 (2001); Gonzalez et al., Embo J 18: 3119-3132 (1999). For each reaction, 5 μg purified IRE1α-cyto was incubated with 300 ng of fluorescein-labeled RNA stem-loop substrate at 37° C. in a total volume of 300 μl. Aliquots (50 μl) were withdrawn at the indicated times and mixed with an equal volume of stop solution. Id. Reactions were analyzed by SDS-PAGE using 10-20% acrylamide gradient gels. The sequence for the hXBP-1 3′ RNA stem-loop substrate is as follows: • 5′[…] 3′ (SEQ ID NO: 8). […]
HT1080 cells were exposed to DMSO vehicle (lane 1), irestatin 9389 (2.5 μM; lane 2) for 16 hours or Tm (5 μg/ml; lane 3) for 8 hours. Following treatments, cells were harvested, lysed, and analyzed by immunoblotting using anti-Grp78 antibody (top) or anti-actin (bottom) as a loading control. […] Cell lysates were analyzed by Western immunoblotting using anti-IRE1α (bottom) or anti-phospho-IRE1α antibodies (top). […] Lysates were analyzed by Western blot using antisera specific for phospho-JNK1 (top) or total JNK1 (bottom). […] F. Quantification of RNA cleavage kinetics. […] Samples were analyzed as in (E).
Next we determined whether irestatin 9389 inhibited the endonuclease function of IRE1α. […]

[2] = irestatin-treated nude mice, terminal cardiac blood draw, mean

T1 sequence (P61823 27-150): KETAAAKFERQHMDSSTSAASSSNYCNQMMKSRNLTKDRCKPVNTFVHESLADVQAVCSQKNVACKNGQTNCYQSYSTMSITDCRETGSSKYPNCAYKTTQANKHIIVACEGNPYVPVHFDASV

**Q.** For `Cc1csc(NC(=O)CSc2nc3c(c(C(F)(F)F)c2C#N)CCC3)n1` [Compound 9389], which “degradation of the XBP-1 3′ intronic loop by RNAse A” value (RNAse A) is on record?
**A.** failed to inhibit degradation

**Q.** And the “tolerability (kidney, liver, bone marrow function)” value ([1]; 3-4 doses of 50 mg/kg every other day)?
**A.** well tolerated

**Q.** What about the “fasting blood glucose levels versus vehicle” value ([1]; irestatin- and vehicle-treated animals) of the same molecule?
**A.** no significant difference in fasting blood glucose levels

**Q.** What about the ALT [1, 2] of the same molecule?
**A.** 29.4 IU/L

**Q.** What about the AST [1, 2] of the same molecule?
**A.** 117.775 IU/L

**Q.** What about the “Anion Gap” value [1, 2] of the same molecule?
**A.** 17.975 mM

**Q.** What about the “Carbon Dioxide” value [1, 2] of the same molecule?
**A.** 25.075 mM

**Q.** And the Chloride [1, 2]?
**A.** 116.75 mM

**Q.** What about the Cholesterol [1, 2] of the same molecule?
**A.** 102 mg/dL

**Q.** And the Glucose [1, 2]?
**A.** 124.5 mg/dL

**Q.** And the HCT [1, 2]?
**A.** 47%

**Q.** And the HGB [1, 2]?
**A.** 14.625 gm/dL

**Q.** What about the Na/K Ratio [1, 2] of the same molecule?
**A.** 20.3

**Q.** And the Platelets [1, 2]?
**A.** 805.5 K/uL

**Q.** And the Potassium [1, 2]?
**A.** 7.5175 mM

**Q.** What about the RBC [1, 2] of the same molecule?
**A.** 10.375 M/uL

**Q.** What about the Sodium [1, 2] of the same molecule?
**A.** 152.25 mM

**Q.** And the “Total Bilirubin” value [1, 2]?
**A.** 0.3 mg/dL

**Q.** What about the WBC [1, 2] of the same molecule?
**A.** 5.19 K/uL

**Q.** And the “histopathological analysis of all major organs” value ([1]; three doses, 50 mg/kg)?
**A.** no significant differences between the vehicle and irestatin treatment groups

**Q.** And the “growth of RPMI 8226” value (RPMI 8226 myeloma cells)?
**A.** strongly inhibited the growth

**Q.** And the “cleavage of XBP-1 target RNA by IRE1α endonuclease” value (His6-IRE1α-cyto)?
**A.** strongly inhibited cleavage
